The record followed here is patent US20260297095A1, “NOVEL PYRROLOTRIAZINE DERIVATIVE AND USE THEREOF” (Pelemed Co., Ltd., priority 2024, published 2026).

Experiment [1] addresses YES1 kinase (Homo sapiens, UniProt P07947). As to the kind of experiment: YES1 kinase inhibition, ADP Glo assay (Promega). The experiment is classed as biochemical. To be noted: for IC50: class symbols, read-out: YES1 enzyme, IC50; for inhibition at 0.01 µM: compound 10 nM, read-out: YES1 enzyme, % inhibition, 10 nM; for inhibition at 0.1 µM: compound 100 nM, read-out: YES1 enzyme, % inhibition, 100 nM; for YES1 kinase inhibition at 1 nM (in words) / inhibition at 0.001 µM: compound 1 nM; for inhibition at 0.001 µM: read-out: YES1 enzyme, % inhibition, 1 nM. In a few lines:
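YES1 kinase was preincubated 10 min with compound in Mn2+/DTT-containing kinase buffer, then reacted 40 min at room temperature with ATP/substrate; ADP was detected by ADP-Glo luminescence. Activity, background-subtracted and normalised to negative control, is given as % inhibition at 1, 10 and 100 nM, plus IC50.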
(In general: ADP-Glo first removes unused ATP, then detects ADP through luciferase.)

Experiment [2] concerns KYSE-70 esophageal cancer cell line. As to the kind of experiment: Cell growth inhibition of KYSE-70 (Sulforhodamine B). The experiment is classed as cell-based. Conditions: Homo sapiens; KYSE-70, 72 hours; read-out: KYSE70 GI50. In short, it runs like this: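 KYSE-70 cells (YES1-amplified) in RPMI-1640 with 10% FBS were seeded 24 h before treatment with compound at 0.0046–10 µM final. After 72 h, cells were TCA-fixed and stained with sulforhodamine B, with absorbance read at 510 nm. GI50 was derived with a time-zero plate set to 0% and the vehicle control to 100%, in duplicate tests.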

Each structure is given as a SMILES string.

As a reminder, the IC50 is the concentration at which inhibition is half-maximal. In general, inhibition refers to the change of the read-out against control, counted positive when it falls. In general, GI50 refers to the concentration giving 50% growth inhibition.

YES1 kinase, sequence (P07947 whole entry): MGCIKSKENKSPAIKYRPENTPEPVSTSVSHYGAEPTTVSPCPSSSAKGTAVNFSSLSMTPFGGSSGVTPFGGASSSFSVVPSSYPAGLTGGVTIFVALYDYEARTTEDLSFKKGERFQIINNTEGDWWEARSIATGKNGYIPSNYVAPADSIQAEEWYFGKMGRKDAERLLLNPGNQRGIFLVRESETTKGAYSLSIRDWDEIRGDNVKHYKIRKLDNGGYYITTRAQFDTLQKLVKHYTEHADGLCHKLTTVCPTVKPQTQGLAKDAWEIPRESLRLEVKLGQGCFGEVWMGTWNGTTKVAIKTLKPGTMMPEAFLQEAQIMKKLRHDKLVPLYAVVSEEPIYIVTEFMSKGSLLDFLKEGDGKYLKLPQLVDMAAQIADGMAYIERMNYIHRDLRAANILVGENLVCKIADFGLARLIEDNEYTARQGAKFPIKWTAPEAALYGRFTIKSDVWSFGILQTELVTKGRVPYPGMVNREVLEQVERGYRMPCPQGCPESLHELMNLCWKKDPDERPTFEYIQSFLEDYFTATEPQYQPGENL

Consider `COc1cc(-c2cc(N3CCC(C)(N)CC3)n3ncnc(N)c23)ccc1NC(=O)OC(C)(C)C` [Example 45, tert-butyl (4-(4-amino-7-(4-amino-4-methylpiperidin-1-yl)pyrrolo[2,1-f][1,2,4]triazin-5-yl)-2-methoxyphenyl)carbamate], for which, in experiment [1], the 50% inhibitory concentration (IC50) was no more than 100 nM, the inhibition at 0.01 µM was 80% and the inhibition at 0.1 µM is 92%. For the same molecule, in experiment [2], the GI50 is no more than 100 nM.
As to `COc1cc(-c2cc(N3CCC(NC(C)=O)CC3)n3ncnc(N)c23)ccc1NC(=O)OC(C)(C)C` [Example 103, tert-butyl (4-(7-(4-acetamidopiperidin-1-yl)-4-aminopyrrolo[2,1-f][1,2,4]triazin-5-yl)-2-methoxyphenyl)carbamate], in experiment [1], the inhibition at 0.01 µM worked out at 27% and the inhibition at 0.1 µM was determined as 66%. Moreover, in experiment [2], the GI50 lay in the range of 100 to 1000 nM.
`COc1cc(-c2c(C)c(N3CCC(N)CC3)n3ncnc(N)c23)ccc1NC(=O)OC(C)(C)C` [Example 74, tert-butyl (4-(4-amino-7-(4-aminopiperidin-1-yl)-6-methylpyrrolo[2,1-f][1,2,4]triazin-5-yl)-2-methoxyphenyl)carbamate]: in experiment [1], the IC50 is no more than 100 nM, the “YES1 kinase inhibition at 1 nM (in words)” value is recorded as “could be inhibited even at a low concentration of 1 nM”, the inhibition at 0.001 µM stood at 43% and the inhibition at 0.01 µM was 66%. In addition, in experiment [2], the concentration for 50% growth inhibition (GI50) was no more than 100 nM.
Take `COc1cc(-c2cc(N3CCC(C(C)(C)N)CC3)n3ncnc(N)c23)ccc1NC(=O)OC(C)(C)C` [Example 106, tert-butyl (4-(4-amino-7-(4-(2-aminopropan-2-yl)piperidin-1-yl)pyrrolo[2,1-f][1,2,4]triazin-5-yl)-2-methoxyphenyl)carbamate]: in experiment [1], the inhibition at 0.001 µM is 37% and the inhibition at 0.01 µM was 43%. Moreover, the GI50 in experiment [2] was no more than 100 nM.
On to `COc1cc(-c2cc(N3CC4(CCN(C)C4)C3)n3ncnc(N)c23)ccc1NC(=O)OC(C)(C)C` [Example 39, tert-butyl (4-(4-amino-7-(6-methyl-2,6-diazaspiro[3.4]octan-2-yl)pyrrolo[2,1-f][1,2,4]triazin-5-yl)-2-methoxyphenyl)carbamate], for which, in experiment [1], the inhibition at 0.01 µM stood at 57% and the inhibition at 0.1 µM came out at 89%. Further, the GI50 in experiment [2] was no more than 100 nM.
The like results for `COc1cc(-c2cc(-c3ccc4c(c3)OCCN4C)n3ncnc(N)c23)ccc1NC(=O)OC(C)(C)C` [Example 7, tert-butyl (4-(4-amino-7-(4-methyl-3,4-dihydro-2H-benzo[b][1,4]oxazin-7-yl)pyrrolo[2,1-f][1,2,4]triazin-5-yl)-2-methoxyphenyl)carbamate] were, in that order, 28%, 49% and 1000 to 10000 nM.
In the same order, the values of `COc1cc(-c2cc(N3CC[C@@H](N(C)C)[C@@H](F)C3)n3ncnc(N)c23)ccc1NC(=O)OC(C)(C)C` [Example 30, tert-butyl (4-(4-amino-7-((3S,4R)-4-(dimethylamino)-3-fluoropiperidin-1-yl)pyrrolo[2,1-f][1,2,4]triazin-5-yl)-2-methoxyphenyl)carbamate] are 73%, 94% and no more than 100 nM.
As to `COc1cc(-c2cc(N3CCC4(CC3)CNC(=O)C4)n3ncnc(N)c23)ccc1NC(=O)OC(C)(C)C` [Example 52, tert-butyl (4-(4-amino-7-(3-oxo-2,8-diazaspiro[4.5]decan-8-yl)pyrrolo[2,1-f][1,2,4]triazin-5-yl)-2-methoxyphenyl)carbamate], in experiment [1], the IC50 was no more than 100 nM, the inhibition at 0.01 µM turned out to be 60% and the inhibition at 0.1 µM was 90%. For the same molecule, the GI50 in experiment [2] fell in the range of 100 to 1000 nM.
For `COc1cc(-c2cc(NC3CCNCC3)n3ncnc(N)c23)ccc1NC(=O)OC(C)(C)C` [Example 120, tert-butyl (4-(4-amino-7-(piperidin-4-ylamino)pyrrolo[2,1-f][1,2,4]triazin-5-yl)-2-methoxyphenyl)carbamate], in experiment [1], the inhibition at 0.01 µM came to 40% and the inhibition at 0.1 µM was found to be 78%. In experiment [2], the GI50 lay within 100 to 1000 nM.
For `COCCN1CCN(c2cc(-c3ccc(NC(=O)OC(C)(C)C)c(OC)c3)c3c(N)ncnn23)CC1` [Example 29, tert-butyl (4-(4-amino-7-(4-(2-methoxyethyl)piperazin-1-yl)pyrrolo[2,1-f][1,2,4]triazin-5-yl)-2-methoxyphenyl)carbamate], in experiment [1], the inhibition at 0.01 µM is 28% and the inhibition at 0.1 µM was found to be 47%. For the same molecule, the GI50 in experiment [2] was greater than 10000 nM.
In the same order, the values of `COc1cc(-c2cc(N3CC[C@@H](N)[C@@H](F)C3)n3ncnc(N)c23)ccc1NC(=O)OC(C)(C)C` [Example 46, tert-butyl (4-(4-amino-7-((3S,4R)-4-amino-3-fluoropiperidin-1-yl)pyrrolo[2,1-f][1,2,4]triazin-5-yl)-2-methoxyphenyl)carbamate] are 52%, 77% and 100 to 1000 nM.
In the same order, the values of `COc1cc(-c2cc(N3CCC4NCCC4C3)n3ncnc(N)c23)ccc1NC(=O)OC(C)(C)C` (stereo not shown) [Example 25, tert-butyl (4-(4-amino-7-(octahydro-5H-pyrrolo[3,2-c]pyridin-5-yl)pyrrolo[2,1-f][1,2,4]triazin-5-yl)-2-methoxyphenyl)carbamate] are 28%, 76% and 100 to 1000 nM.
For `COc1cc(-c2cc(N3CCC(N)(C(F)(F)F)CC3)n3ncnc(N)c23)ccc1NC(=O)OC(C)(C)C` [Example 83, tert-butyl (4-(4-amino-7-(4-amino-4-(trifluoromethyl)piperidin-1-yl)pyrrolo[2,1-f][1,2,4]triazin-5-yl)-2-methoxyphenyl)carbamate], in experiment [1], the “YES1 kinase inhibition at 1 nM (in words)” value was “could be inhibited even at a low concentration of 1 nM”, the inhibition at 0.001 µM came to 14% and the inhibition at 0.01 µM worked out at 24%. Further, the GI50 in experiment [2] fell in the range of 100 to 1000 nM.
In the same order, the values of `COc1cc(-c2cc(N3CCC(C(=O)O)CC3)n3ncnc(N)c23)ccc1NC(=O)OC(C)(C)C` [Example 89, 1-(4-amino-5-(4-((tert-butoxycarbonyl)amino)-3-methoxyphenyl)pyrrolo[2,1-f][1,2,4]triazin-7-yl)piperidine-4-carboxylic acid] are “could be inhibited even at a low concentration of 1 nM”, 19%, 34% and greater than 10000 nM.
As for `COc1cc(-c2cc(N3CC[C@H](N)[C@@H](C(F)(F)F)C3)n3ncnc(N)c23)ccc1NC(=O)OC(C)(C)C` [Example 85, tert-butyl (4-(4-amino-7-((3S,4S)-4-amino-3-(trifluoromethyl)piperidin-1-yl)pyrrolo[2,1-f][1,2,4]triazin-5-yl)-2-methoxyphenyl)carbamate], in experiment [1], the 50% inhibitory concentration (IC50) is no more than 100 nM, the inhibition at 0.01 µM was 59% and the inhibition at 0.1 µM is 78%. Also, the GI50 in experiment [2] was no more than 100 nM.
Regarding `COc1cc(-c2cc(N3CCC4(CC3)CNC4=O)n3ncnc(N)c23)ccc1NC(=O)OC(C)(C)C` [Example 55, tert-butyl (4-(4-amino-7-(1-oxo-2,7-diazaspiro[3.5]nonan-7-yl)pyrrolo[2,1-f][1,2,4]triazin-5-yl)-2-methoxyphenyl)carbamate], in experiment [1], the inhibition at 0.01 µM was 40% and the inhibition at 0.1 µM amounted to 76%. Also, the GI50 in experiment [2] was no more than 100 nM.
